Measured values: patent publication US7122321B2, “High throughput method for functionally classifying proteins identified using a genomics approach” (Johnson & Johnson Pharmaceutical Research & Development, …, priority 1997, dated 2006)

How the values were obtained:
Bovine muscle myosin = assay: microplate thermal shift assay of ATP binding, myosin
Description: (§1) Bovine muscle myosin (Sigma), bovine heart 3′–5′ cAMP-dependent protein kinase (Sigma), and chicken muscle pyruvate kinase (Sigma) were each dissolved in Buffer A to generate stock solutions at a final concentration of 2 mg/mL. […] 10 μL of mineral oil was then added to each of the four wells to prevent evaporation. Each data point shown was collected by heating the plate at the temperatures shown for three minutes. For example, the plate was heated to a given temperature, and then allowed to cool to 25 ° C. for one minute, followed by UV illumination and collection of the data. Then the plate was heated to the next higher temperature, and so forth. UV illumination was performed using a long wavelength illumination at […]–420 nm, having a peak at 365 nm. Fluorescence was imaged using a CCD camera having a bandpass filter centered at 550 nm.

[1] = biological target: T1, chicken muscle pyruvate kinase (Gallus gallus, UniProt P00548); assay: microplate thermal shift assay of ATP binding, pyruvate kinase; details: 10 mM, standard deviation in parentheses
T1 construct: chicken muscle pyruvate kinase (Sigma); purchased Sigma; host or cells: chicken muscle
T1 sequence (P00548 whole entry): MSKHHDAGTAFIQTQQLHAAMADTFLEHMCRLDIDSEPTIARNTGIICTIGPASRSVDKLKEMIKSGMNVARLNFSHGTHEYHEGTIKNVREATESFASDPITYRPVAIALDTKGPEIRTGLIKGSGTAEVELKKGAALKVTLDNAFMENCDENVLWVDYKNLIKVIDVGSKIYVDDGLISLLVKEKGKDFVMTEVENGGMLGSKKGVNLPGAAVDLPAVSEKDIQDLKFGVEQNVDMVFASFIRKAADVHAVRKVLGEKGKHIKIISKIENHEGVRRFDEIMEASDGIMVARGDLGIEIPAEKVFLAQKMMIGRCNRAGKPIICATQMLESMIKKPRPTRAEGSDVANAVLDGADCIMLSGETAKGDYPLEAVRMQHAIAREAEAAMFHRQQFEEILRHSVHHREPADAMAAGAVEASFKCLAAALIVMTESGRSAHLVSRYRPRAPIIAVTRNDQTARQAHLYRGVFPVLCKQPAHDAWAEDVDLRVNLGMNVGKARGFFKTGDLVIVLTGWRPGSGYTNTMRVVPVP
Description: as §1

[2] = biological target: T2, chicken liver dihydrofolate reductase (Gallus gallus, UniProt P00378); assay: microplate thermal shift assay, chicken DHFR; type: binding; details: for ΔTm of ligand complexed with DHFR: DHFR (chicken), single ligand 10 mM
T2 construct: chicken liver dihydrofolate reductase (DHFR, Sigma); purchased Sigma; host or cells: chicken liver
T2 sequence (P00378 1-189): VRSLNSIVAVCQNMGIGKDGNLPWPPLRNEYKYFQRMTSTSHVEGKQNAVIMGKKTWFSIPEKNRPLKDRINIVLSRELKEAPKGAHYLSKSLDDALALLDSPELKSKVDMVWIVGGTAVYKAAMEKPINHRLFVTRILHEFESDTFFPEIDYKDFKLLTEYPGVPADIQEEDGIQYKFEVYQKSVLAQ

[3] = biological target: T3, Bovine liver dihydrofolate reductase (Bos taurus, UniProt P00376); assay: microplate thermal shift assay, bovine DHFR; type: binding; design: Kd; Kd; Tm of the thermal unfolding curve; control 47.2° C; control 50.8° C; ΔTm; details: FIG. 12
T3 sequence (P00376 1-187): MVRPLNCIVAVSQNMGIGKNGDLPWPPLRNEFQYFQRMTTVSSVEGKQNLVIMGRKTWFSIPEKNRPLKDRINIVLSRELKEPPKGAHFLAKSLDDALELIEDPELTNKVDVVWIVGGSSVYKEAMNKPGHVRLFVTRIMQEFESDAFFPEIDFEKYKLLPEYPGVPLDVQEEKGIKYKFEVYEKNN

[4] = biological target: T3, Bovine liver dihydrofolate reductase; assay: microplate thermal shift assay, bovine DHFR; type: binding; design: Bovine liver dihydrofolate reductase (DHFR, Sigma); purchased Sigma; host or cells: bovine liver; details: for ΔTm of ligand complexed with DHFR: DHFR (cow), single ligand 10 mM
D(II) FGFR1 = biological target: T4, D(II) FGFR1 (Homo sapiens, UniProt P11362); assay: functional probe library screen (microplate thermal shift assay) against D(II) FGFR1; type: binding; details: functional probe library Plate 1; for effect on thermal stability of D(II) FGFR1: 50 μM D(II) FGFR1
T4 construct: domain II of the fibroblast growth factor receptor 1 (D(II)FGFR1); hexa-histidine (N); made in house; host or cells: E. coli (renatured from inclusion bodies)
T4 sequence (P11362 158-246 limits assumed): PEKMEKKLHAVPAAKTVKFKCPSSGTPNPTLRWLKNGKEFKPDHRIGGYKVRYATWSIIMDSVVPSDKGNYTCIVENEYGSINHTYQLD
Source text: The compounds in functional probe library Plate 1 was also employed to generate an activity spectrum for D(II) FGFR1. D(II) FGFR1 was cloned and expressed in E. coli. Recombinant D(II) FGFR1 was renatured from inclusion bodies essentially as described (Wetmore, D. R. et al., Proc. Soc. Mtg., San Diego, Calif. (1994)), except that a hexa-histidine tag was included at the N-terminus to facilitate recovery by affinity chromatography on a Ni^2+ chelate column (Janknecht, R. et al., Natl. Acad Sci. USA 88:8972–8976 (1991)). D(II) FGFR1 was further purified on a heparin-sepharose column (Kan, M. et al., Science 259:1918–1921 (1993); Pantoliano, M. W. et al., Biochemistry 33:10229–10248 (1994)). Purity was >95%, as judged by SDS-PAGE. The D(II) FGFR1 protein was concentrated to 12 mg/mL (˜1 mM) and stored at 4° C.
Reactions were prepared in 96-well polycarbonate microtitre plate v-bottom wells. The final concentration of D(II) FGFR1 was 50 μM in […], pH 8 in each well of a 96-well polycarbonate microtitre plate.
The fluorescence emission was measured at 460 nm.

human α-thrombin (human) [5] = biological target: human α-thrombin (human) (UniProt P00734); assay: microplate thermal shift assay, 1 µM thrombin + 50 µM hirudin peptide alone
human α-thrombin (human) [6] = biological target: human α-thrombin (human) (UniProt P00734); assay: microplate thermal shift assay, Kd at Tm, hirudin peptide binding thrombin in the presence of 50 µM 3DP-4660
human α-thrombin (human) [7] = biological target: human α-thrombin (human) (UniProt P00734); assay: microplate thermal shift assay, Kd at Tm, hirudin peptide binding thrombin in the presence of 200 µM heparin 5000
human α-thrombin (human) [8] = biological target: human α-thrombin (human) (UniProt P00734); assay: microplate thermal shift assay, Kd at 298 K estimated, hirudin peptide binding thrombin in the presence of 50 µM 3DP-4660
human α-thrombin (human) [9] = biological target: human α-thrombin (human) (UniProt P00734); assay: microplate thermal shift assay, Kd at 298 K estimated, hirudin peptide binding thrombin in the presence of 200 µM heparin 5000
human α-thrombin (human) [10] = biological target: human α-thrombin (human) (UniProt P00734); assay: microplate thermal shift assay, 50 µM hirudin peptide added to thrombin in the presence of 50 µM 3DP-4660 (shift against TH/3dp-4660)
human α-thrombin (human) [11] = biological target: human α-thrombin (human) (UniProt P00734); assay: microplate thermal shift assay, 50 µM hirudin peptide added to thrombin in the presence of 200 µM heparin 5000 (shift against TH/Heparin 5000)
[12] = system: pigeon liver arylamine acetyltransferase; assay: microplate thermal shift assay, arylamine acetyltransferase; type: binding; details: Arylamine Acetyl transferase
[13] = biological target: T5, porcine liver formimino glutamic acid transferase (Sus scrofa, UniProt P53603); assay: microplate thermal shift assay, formimino glutamic acid transferase; type: binding; details: Formimino L-Glutamic acid Transferase
T5 construct: porcine liver formimino glutamic acid transferase (FGT, Sigma); purchased Sigma; host or cells: porcine liver
T5 sequence (P53603 1-541): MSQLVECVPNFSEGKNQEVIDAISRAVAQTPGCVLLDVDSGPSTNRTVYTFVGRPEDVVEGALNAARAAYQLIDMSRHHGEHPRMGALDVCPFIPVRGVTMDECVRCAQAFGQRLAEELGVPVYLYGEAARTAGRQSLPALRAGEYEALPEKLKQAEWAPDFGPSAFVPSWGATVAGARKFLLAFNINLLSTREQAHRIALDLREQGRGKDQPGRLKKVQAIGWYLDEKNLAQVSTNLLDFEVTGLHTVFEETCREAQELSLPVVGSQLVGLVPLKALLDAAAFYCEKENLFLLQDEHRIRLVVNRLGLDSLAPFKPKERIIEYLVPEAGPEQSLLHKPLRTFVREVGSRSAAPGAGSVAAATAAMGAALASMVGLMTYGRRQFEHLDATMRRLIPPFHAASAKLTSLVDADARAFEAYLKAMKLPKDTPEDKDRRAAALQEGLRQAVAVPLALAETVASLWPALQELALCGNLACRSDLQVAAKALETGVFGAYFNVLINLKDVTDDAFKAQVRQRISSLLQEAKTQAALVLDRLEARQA
Description: Folic acid binding can be assayed using the microplate thermal shift assay. Bovine liver dihydrofolate reductase (DHFR, Sigma), chicken liver dihydrofolate reductase (DHFR, Sigma), pigeon liver arylamine acetyltransferase (ArAcT, Sigma), and porcine liver formimino glutamic acid transferase (FGT, Sigma) were each dissolved in Buffer A (50 mM HEPES, pH 7.5, 100 mM NaCl) to generate stock solutions at a final concentration of 2 mg/mL. Solutions of dihydrofolic acid (FAH2), methotrexate, nicotinamide adenine dinucleotide phosphate (NADP), were prepared by dissolving solid material into Buffer A immediately prior to use. Dapoxyl™ 12800 solution was prepared by diluting a stock of 20 mM Dapoxyl™, 12800 in dimethyl sulfoxide to the appropriate concentration in Buffer A.
For the thermal shift assay, four 10 μL aliquots of each assay mixture were dispensed into four wells located in different quadrants of an MJ Research 384-well thermocycler plate. 10 μL of mineral oil was then added to each of the four wells to prevent evaporation. Each data point shown was collected by heating the plate at the temperature shown for three minutes, followed by incubation at 25° C. for one minute, followed by UV illumination and collection of the data.

[14] = biological target: T6, bovine heart 3′–5′ cAMP-dependent protein kinase (Bos taurus, UniProt P00517); assay: microplate thermal shift assay of ATP binding, cAMP-dependent protein kinase
T6 construct: bovine heart 3′–5′ cAMP-dependent protein kinase (Sigma); purchased Sigma; host or cells: bovine heart

[15] = Myosin, 10 mM, standard deviation in parentheses

Nc1ncnc2c1ncn2[C@@H]1O[C@H](COP(=O)(O)OP(=O)(O)OP(=O)(O)O)[C@@H](O)[C@H]1O [ATP, adenosine triphosphate]
Tm of the thermal unfolding curve (Bovine muscle myosin; (+)ATP, FIG. 9, control 49.3° C.): 51.4 °C | Kd (Bovine muscle myosin; FIG. 9): 440 µM | ΔTm (Bovine muscle myosin; FIG. 9): 2.1 °C | ΔTm (Bovine muscle myosin; [15]): 2.2 (±0.4) ° C. | ΔTm at 10000 µM [1]: -0.44 °C

NC(=O)C1=CN([C@@H]2O[C@H](COP(=O)(O)OP(=O)(O)OC[C@H]3O[C@@H](n4cnc5c(N)ncnc54)[C@H](OP(=O)(O)O)[C@@H]3O)[C@@H](O)[C@H]2O)C=CC1 [NADPH, nicotinamide adenine dinucleotide phosphate-reduced form]
ΔTm of ligand complexed with DHFR [2]: 11.9 degrees | Tm of the thermal unfolding curve ([3]; (+) NADPH 10 mM, control 50.8° C.): 53.8 °C | Kd [3]: 0.7 µM | ΔTm ([3]; NADPH 10 mM): 3 °C | ΔTm of ligand complexed with DHFR [4]: 9.7 degrees

OC[C@H]1O[C@@](CO)(O[C@H]2O[C@H](CO)[C@@H](O)[C@H](O)[C@H]2O)[C@@H](O)[C@@H]1O [D(+)-sucrose]
effect on thermal stability of D(II) FGFR1 (D(II) FGFR1): stabilize

O=P(O)(O)OP(=O)(O)OP(=O)(O)O [tri-polyphosphate]
thermal shift of D(II) FGFR1 (D(II) FGFR1; largest shift): about 11 °C

Hirugen (hirudin 53-64) (Sigma) (from UniProt P09945 60-71) (peptide)
ΔTm (human α-thrombin (human) [5]): 5.8 ° K. | Kd (human α-thrombin (human) [6]): 0.731 µM | Kd (human α-thrombin (human) [7]): 4.25 µM | Kd (human α-thrombin (human) [8]): 0.054 µM | Kd (human α-thrombin (human) [9]): 0.478 µM | ΔTm (human α-thrombin (human) [10]): 4.6 ° K. | ΔTm (human α-thrombin (human) [11]): 2.6 ° K.

nicotinamide adenine dinucleotide phosphate [NADP]
ΔTm of ligand complexed with DHFR [2]: 7.5 degrees | ΔTm ([2]; DHFR (second row, reference Tm 56.6), 5 mM): 3.8 (±0.4) | ΔTm ([12]; 5 mM): 2.8 (±0.4) | ΔTm ([13]; 5 mM): 0.0 (±0.2) | ΔTm of ligand complexed with DHFR [4]: 6.3 degrees | ΔTm ([4]; DHFR (first row, reference Tm 52.47), 5 mM): 3.2 (±0.13)

O=C[C@H](O)[C@@H](O)[C@H](O)[C@H](O)CO [D(+)-glucose]
effect on thermal stability of D(II) FGFR1 (D(II) FGFR1): stabilize

OC[C@@H](O)[C@H](O)[C@@H](O)CO [xylitol]
effect on thermal stability of D(II) FGFR1 (D(II) FGFR1): stabilize

CN(Cc1cnc2nc(N)nc(N)c2n1)c1ccc(C(=O)N[C@@H](CCC(=O)O)C(=O)O)cc1 [Methotrexate, methotrexate]
ΔTm ([12]; 100 μM): 1.0 (±0.4) | ΔTm at 100 µM [13]: 0.9 °C

Nc1nc2c(c(=O)[nH]1)N=C(CNc1ccc(C(=O)N[C@@H](CCC(=O)O)C(=O)O)cc1)CN2 [FAH2, dihydrofolic acid]
ΔTm ([12]; 100 μM): −1.8 (±0.5) | ΔTm at 100 µM [13]: 3.62 °C

Nc1ncnc2c1ncn2[C@@H]1O[C@H](COP(=O)(O)OP(=O)(O)OP(O)(O)=S)[C@@H](O)[C@H]1O [ATP-γ-S, adenosinetriphosphate-γ-S]
ΔTm (Bovine muscle myosin; [15]): 0.0 (±0.2) ° C. | ΔTm ([14]; 3′–5′ cAMP Protein kinase, 10 mM, standard deviation in parentheses): 5.6 (±1.7) ° C. | Tm of the thermal unfolding curve ([14]; (+) ATP-γ-S, FIG. 10, control 46.2° C.): 51.8 °C | Kd ([14]; FIG. 10): 200 µM | ΔTm ([14]; FIG. 10): 5.6 °C | ΔTm [1]: 0.8 (±0.11) ° C.

OC[C@@H](O)[C@@H](O)[C@H](O)[C@@H](O)CO [sorbitol]
effect on thermal stability of D(II) FGFR1 (D(II) FGFR1): stabilize
